Values quoted from earlier work in patent US12370168B2 (scPharmaceuticals Inc., priority 2013, dated 2025).

Conditions: as described in the '361 patent; cited from earlier work

SMILES: NC(CO)(CO)CO.NS(=O)(=O)c1cc(C(=O)O)c(NCc2ccco2)cc1Cl [tris(hydroxymethyl)aminomethane salt of furosemide]
- pH: 6-6.5
